# Patent publication US20090226500A1, “SUTURES AND ANTI-SCARRING AGENTS” (Angiotech Pharmaceuticals, Inc, priority 2006, published 2009)
# Where a name gives a salt, the structure may show the parent alone. Numbered stars: 1 amine (or outer) side, 2 acyl side, 3 side chain; on linkers, the order of the positions; unused ones are H or OH. Bridge positions count the residues as written; N and C are the ends. Square brackets hold non-standard residues; d marks the D form. Peptide text beside a SMILES is read from it. I, II: the chains in the order shown. Actinocin(9to1) = Cc1c2oc3c(C)ccc(C(=O)[*:1])c3nc-2c(C(=O)[*:2])c(N)c1=O; NMeV = CN[C@H](C(=O)O)C(C)C; Sar = CNCC(=O)O
# Tested on: human fibroblasts
# Assay: Cell proliferation of fibroblasts
# Format: cell-based
# Conditions: Fibroblast, 72 hours, CYQUANT, read-out: IC50 cell proliferation of fibroblasts
# Method: Fibroblasts at 70-90% confluency are trypsinized, replated at 600 cells/well in media in 96-well plates and allowed to attachment overnight. […] Each drug concentration is tested in triplicate wells. Plates containing fibroblasts and drug substance are incubated at 37° C. for 72 hours.
# To terminate the assay, the media is removed by gentle aspiration. A 1/400 dilution of CYQUANT 400×GR™ dye indicator (Molecular Probes; Eugene, Oreg.) is added to 1× Cell Lysis buffer, and 200 μL of the mixture is added to the wells of the plate. Plates are incubated at room temperature, protected from light for 3-5 minutes.
row,Compound,IC50 [nM]
1,Nc1ncn([C@@H]2O[C@H](CO)[C@@H](O)[C@H]2O)c(=O)n1 [5-Azacytidine],600 to 1200
2,"O=c1cnn([C@@H]2O[C@H](CO)C(O)[C@@H]2O)c(=O)[nH]1 (some centres unmarked) [6-Azauridine, 6-Azauracil riboside]",1200 to 10000
3,CC[C@@]1(O)C[C@H](O[C@H]2C[C@H](N(C)C)[C@H](O[C@H]3C[C@H](O)[C@H](O[C@H]4CCC(=O)[C@H](C)O4)[C@H](C)O3)[C@H](C)O2)c2c(cc3c(c2O)C(=O)c2c(O)cccc2C3=O)[C@H]1C(=O)OC [Aclarubicin],0.1 to 10
4,"Cc1c2oc3c(C)ccc(C(=O)N[C@@H]4C(=O)N[C@H](C(C)C)C(=O)N5CCC[C@H]5C(=O)N(C)CC(=O)N(C)[C@@H](C(C)C)C(=O)O[C@@H]4C)c3nc-2c(C(=O)N[C@@H]2C(=O)N[C@H](C(C)C)C(=O)N3CCC[C@H]3C(=O)N(C)CC(=O)N(C)[C@@H](C(C)C)C(=O)O[C@@H]2C)c(N)c1=O [Actinomycin D] (I: T[dV]P[Sar][NMeV] / II: T[dV]P[Sar][NMeV]; ester I:1-I:C, II:1-II:C; linker I:N-II:N via Actinocin(9to1))",0.1 to 10
5,CCCSc1ccc2nc(NC(=O)OC)[nH]c2c1 [Albendazole],100 to 600
6,"S=C(S)N1CCCC1 [Ammonium pyrrolidinedithiocarbamate, 1-Pyrrolidinecarbodithioic acid ammonium salt]",100 to 600
7,N=c1ccn2c(n1)O[C@H]1[C@H](O)[C@@H](CO)O[C@H]12 [Ancitabine hydrochloride],100 to 600
8,"O=c1cc(-c2ccc(O)cc2)oc2cc(O)cc(O)c12 [Apigenin, 4,5,7-Trihydroxyflavone]",1200 to 10000
9,O=C1C(O)=C([C@H]2CC[C@H](c3ccc(Cl)cc3)CC2)C(=O)c2ccccc21 [Atovaquone],1200 to 10000
10,Cc1ccc2nc(NCCN)c3ncc(C)n3c2c1 [BMS-345541],1200 to 10000
11,O=C(OOC(=O)c1ccccc1)c1ccccc1 [Benzoyl peroxide],1200 to 10000
12,C=C(C)[C@@H]1CC[C@]2(C(=O)O)CC[C@]3(C)[C@H](CC[C@@H]4[C@@]5(C)CC[C@H](O)C(C)(C)[C@@H]5CC[C@]43C)[C@@H]12 [Betulinic acid],1200 to 10000
13,Clc1ccc(CCC(Cn2ccnc2)Sc2c(Cl)cccc2Cl)cc1 (centres unmarked) [Butoconazole Nitrate],1200 to 10000
14,O=C1NC(=O)c2cc(Nc3ccc(F)cc3)c(Nc3ccc(F)cc3)cc21 [CGP53353],1200 to 10000
15,CCOc1nc2cccc(C(=O)O)c2n1Cc1ccc(-c2ccccc2-c2nnn[nH]2)cc1 [Candesartan],10 to 100
16,O=NN(CCCl)C(=O)NCCCl [Carmustine],1200 to 10000
17,Cc1ccc(-c2cc(C(F)(F)F)nn2-c2ccc(S(N)(=O)=O)cc2)cc1 [Celecoxib],100 to 600
18,C/C=C(\C)C(=O)N[C@@H](c1ccccc1)[C@@H](O)C(=O)O[C@H]1C[C@@]2(O)[C@@H](OC(=O)c3ccccc3)[C@@H]3[C@]4(OC(C)=O)CO[C@@H]4C[C@H](O)[C@@]3(C)C(=O)[C@H](OC(C)=O)C(=C1C)C2(C)C [Cephalomannine],10 to 100
19,COc1ccc2cc1Oc1ccc(cc1)C[C@H]1c3c(cc4c(c3Oc3cc5c(cc3OC)CCN(C)[C@@H]5C2)OCO4)CCN1C [Cepharanthine],600 to 1200
20,COCc1c(C(C)C)nc(C(C)C)c(/C=C/[C@@H](O)C[C@@H](O)CC(=O)O)c1-c1ccc(F)cc1 [Cerivastatin Na],1200 to 10000
21,CC1(COc2ccc(CC3SC(=O)NC3=O)cc2)CCCCC1 (centres unmarked) [Ciglitazone],600 to 1200
22,"CC[C@H]1OC(=O)[C@H](C)[C@@H](O[C@H]2C[C@@](C)(OC)[C@@H](O)[C@H](C)O2)[C@H](C)[C@@H](O[C@@H]2O[C@H](C)C[C@H](N(C)C)[C@H]2O)[C@](C)(OC)C[C@@H](C)C(=O)[C@H](C)[C@@H](O)[C@]1(C)O [Clarithromycin, 6-O-Methylerythromycin]",100 to 600
23,O=C1CCc2cc(OCCCCc3nnnn3C3CCCCC3)ccc2N1 [Cliostazol],1200 to 10000
24,CCOC(=O)COc1ccc2c(C)c(CCN(CC)CC)c(=O)oc2c1Cl [Cloricromene],1200 to 10000
25,"COc1cc(/C=C/C(=O)CC(=O)/C=C/c2ccc(O)c(OC)c2)ccc1O [Curcumin, Diferuloylmethane]",1200 to 10000

row,Compound,IC50 [nM]
1,CN(C)/N=N/c1[nH]cnc1C(N)=O [Dacarbazine],10 to 100
2,"Nc1ncn([C@H]2C[C@H](O)[C@@H](CO)O2)c(=O)n1 [Decitabine, 5-Aza-2-deoxycytidine]",100 to 600
3,"O=c1oc2ccccc2c(O)c1Cc1c(O)c2ccccc2oc1=O [Dicumarol, 3,3-Methylenebis(4-hydroxycoumarin)]",1200 to 10000
4,CC(=O)OCC(=O)[C@@]1(OC(C)=O)[C@@H](C)C[C@H]2[C@@H]3C[C@H](F)C4=CC(=O)C=C[C@]4(C)[C@@]3(F)[C@@H](O)C[C@@]21C [Diflorasone diacetate],1200 to 10000
5,"Cc1cc(O)c2c(c1)C(=O)c1cc(O)cc(O)c1C2=O [Emodin, 6-Methyl-1,3,8-trihydroxyanthraquinone]",1200 to 10000
6,CCOC(=O)[C@H](CCc1ccccc1)N[C@@H](C)C(=O)N1CCC[C@H]1C(=O)O [Enalapril],1200 to 10000
7,"COC(=O)C=Cc1cc(O)ccc1O [Erbstatin analog, Methyl 2,5-dihydroxycinnamate]",1200 to 10000
8,O=C(O)CSCC(=O)NC1CCSC1=O (centres unmarked) [Erdosteine],1200 to 10000
9,NC(N)=Nc1nc(CSCCC(N)=NS(N)(=O)=O)cs1 [Famotidine],100 to 600
10,O=S(=O)(c1cccc2cnccc12)N1CCCNCC1 [Fasudil],600 to 1200
11,Nc1nc(F)nc2c1ncn2[C@@H]1O[C@H](COP(=O)(O)O)[C@@H](O)[C@@H]1O [Fludarabine Phosphate],1200 to 10000
12,CC(C)n1c(/C=C/C(O)CC(O)CC(=O)O)c(-c2ccc(F)cc2)c2ccccc21 (centres unmarked) [Fluvastatin],100 to 600
13,"COc1ccc(-c2coc3cc(O)ccc3c2=O)cc1 [Formononetin, 7-Hydroxy-4-methoxyisoflavone]",100 to 600
14,Cc1ccc(C)c(OCCCC(C)(C)C(=O)O)c1 [Gemfibrozil],10 to 100
15,CCCCCCC(C)(C)c1cc(O)c2c(c1)OC(C)(C)[C@@H]1CC=C(CO)C[C@@H]21 [HU-210],1200 to 10000
16,CCC(=O)O[C@]1(C(=O)CCl)[C@@H](C)C[C@H]2[C@@H]3C[C@H](F)C4=CC(=O)C=C[C@]4(C)[C@@]3(F)[C@@H](O)C[C@@]21C [Halobetasol Propionate],1200 to 10000
17,COc1ccc([C@@H]2CC(=O)c3c(O)cc(O)cc3O2)cc1O [Hesperetin],0.1 to 10
18,COC(=O)C[C@](O)(CCCC(C)(C)O)C(=O)O[C@@H]1C(OC)=C[C@]23CCCN2CCc2cc4c(cc2[C@H]13)OCO4 [Homoharringtonine],10 to 100
19,NNc1nncc2ccccc12 [Hydralazine hydrochloride],1200 to 10000
20,O=C(Nc1cc(C(F)(F)F)cc(C(F)(F)F)c1)c1cc(Cl)ccc1O [IMD-0354],100 to 600
21,O=c1[nH]cnc2c1ncn2[C@@H]1O[C@H](CO)[C@@H](O)[C@H]1O [INO-1001],1200 to 10000
22,COC1=C(OC)C(=O)C(CCCCCCCCCCO)=C(C)C1=O [Idebenone],1200 to 10000
23,c1c[nH]cn1 [Imidazole],1200 to 10000
24,CCc1c2c(nc3ccc(OC(=O)N4CCC(N5CCCCC5)CC4)cc13)-c1cc3c(c(=O)n1C2)COC(=O)[C@]3(O)CC [Irinotecan Hydrochloride Trihydrate],600 to 1200
25,Nc1nc(N)nc(-c2cc(Cl)ccc2Cl)n1 [Irsogladine],1200 to 10000
